pEC50, pIC50: −log10 of the molar value.

EC50 and IC50 data for 21 molecules are collected here from patent US10899758B2, “Inhibitors of the menin-MLL interaction” (Vitae Pharmaceuticals, LLC, priority 2016, dated 2021).

Test [1] has as its system human acute monocytic leukemia cell line MV-4-11. In words: Assay 2 (Cell Proliferation Assay), ATP quantitation (CellTiter-Glo). Format: cell-based. To be noted: Homo sapiens, MV4-11, 72 h, MV-4-11 cells, read-out: Assay 2 (EC50, inhibition of cell proliferation). Here is the method:
Potencies of inhibitor compounds against cell proliferation was assessed against the human acute monocytic leukemia cell line MV-4-11 (ATCC® CRL-9591™) based on ATP quantitation. MV-4-11 cells or toxicity control HL-60 cells (ATCC® CCL-240™) were incubated in 96-well tissue culture plates (1.67×10^4 cells in 200 μL culture media containing 10% FBS per well) with or without test compound for 72 h at 37° C., 5% CO2. After incubation, each well was mixed by pipetting and 95 μL from each well was transferred to a well in 96-well black OptiPlate® plates (PerkinElmer). An equal volume of CellTiter-Glo® Luminescent Cell Viability Assay reagent (Promega) was added to each well, followed by mixing for 5 min on an orbital plate shaker. Luminescence was measured on a Wallac EnVision 2104 Multilabel Reader (PerkinElmer) to quantitate ATP. Percent inhibition of cell proliferation by test compounds was calculated based on uninhibited cell growth (DMSO) versus cells treated with a potent menin inhibitor at a concentration yielding at least 100×LD50.
(Cellular ATP, detected with luciferase, serves as a proxy for viable cell number.)

Test [2] addresses T1, menin/MLL binding (biotinylated wild-type or mutated menin and MLL-AF9 fusion protein) (Homo sapiens, UniProt O00255).
T1 construct: biotinylated (1) wild-type menin or (2) mutated menin (described in Nature (2012) Vol. 482, pp. 542-548); fused on or other part: Biotin attached chemically (Sulfo-NHS-Biotin); no fused second protein is printed for menin
T1 sequence (O00255 1-459 limits assumed): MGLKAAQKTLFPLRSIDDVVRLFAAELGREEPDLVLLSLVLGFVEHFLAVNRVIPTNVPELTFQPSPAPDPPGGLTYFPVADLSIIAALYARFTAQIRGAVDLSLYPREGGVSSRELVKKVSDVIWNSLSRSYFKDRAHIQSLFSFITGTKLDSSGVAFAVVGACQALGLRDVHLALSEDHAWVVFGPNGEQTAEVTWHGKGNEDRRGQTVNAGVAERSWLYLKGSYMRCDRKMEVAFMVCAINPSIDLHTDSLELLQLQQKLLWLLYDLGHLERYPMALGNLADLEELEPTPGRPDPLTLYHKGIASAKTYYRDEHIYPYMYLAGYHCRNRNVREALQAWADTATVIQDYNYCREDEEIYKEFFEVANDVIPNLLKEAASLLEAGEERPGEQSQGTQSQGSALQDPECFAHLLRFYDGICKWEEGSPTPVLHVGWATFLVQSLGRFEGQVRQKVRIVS
In words: Assay 1 (Binding Assay): AlphaLISA menin/MLL binding. To be noted: 5 nM biotinylated menin, MLL-AF9-FLAG lysate. On the procedure: Potencies of inhibitor compounds against menin/MLL binding were assessed by AlphaLISA assay using biotinylated (1) wild-type menin or (2) mutated menin (described in Nature (2012) Vol. 482, pp. 542-548) and MLL-AF9 fusion protein bearing a FLAG epitope at its C-terminus. Menin proteins were expressed in E. coli and covalently modified with biotin using EZ-Link™ Sulfo-NHS-Biotin (ThermoFisher Cat. No. 21217) according to manufacturer's protocol. MLL1-1,396 fused to AF91-92 and the C-terminal FLAG peptide was expressed in HEK293 cells and used as a lysate cleared at 21,000×g for 10 min.
Compounds (2 μL of solutions in DMSO) were dispensed in white 96-well half-area plates (Corning Cat. No. 3693) and incubated for 30 min at RT with 5 nM biotinylated menin and appropriate amount of MLL-AF9-FLAG lysate in 40 μL of 50 mM Tris-HCl buffer pH 7.4 containing 5% (v/v) DMSO, 50 mM NaCl, 0.01% (w/v) bovine serum albumin (BSA) and 1 mM DTT. To this incubation mixture, 40 μl of AlphaLISA anti-FLAG acceptor (PerkinElmer Cat. No. AL112C) and streptavidin donor (PerkinElmer Cat. No. 6760002) beads (10 μg/mL each) was added and incubation continued at RT for 60 min. Alpha (amplified luminescent proximity homogeneous assay) signal was measured on an Envision multi-label plate reader at the end of the incubation. All steps were conducted under dim fluorescent light.
These percent inhibition values were regressed against compound concentrations in the assay using four parameter logit non-linear curve fitting (XLFit, IDBS). The IC50 values were derived from the curve fitting as inflection points on the dose-response curves and are set out in Table 14 below.
(In general: In Alpha technology, singlet oxygen from a donor bead excites a nearby acceptor bead.)

The pIC50 is the IC50 on a negative log10 scale, so that one unit is a factor of ten. High values mean a low IC50, low ones a high IC50. As for `CC(C)N(C)C(=O)c1cc(F)ccc1-n1cc([C@H]2CC[C@@H](N)CC2)c2ccncc21` [Example 58, 2-(3-(cis-4-aminocyclohexyl)-1H-pyrrolo[2,3-c]pyridin-1-yl)-5-fluoro-N-isopropyl-N-methylbenzamide], in test [1], the pEC50 is not above 6.00. The molecule also had a pIC50 in test [2] of 6.00 to 7.00. For the molecule `CC(C)N(C(=O)c1cc(F)ccc1-n1cc(C2CCN(Cc3ccccc3)CC2)c2ccncc21)C(C)C` [Example 33, 2-(3-(1-benzylpiperidin-4-yl)-1H-pyrrolo[2,3-c]pyridin-1-yl)-5-fluoro-N,N-diisopropylbenzamide], the pEC50 in test [1] was more than 7.00. Further, the pIC50 in test [2] is more than 7.00. As for `CC(C)N(C)C(=O)c1cc(F)ccc1-n1cc([C@H]2CC[C@@H](N3CCC(C(=O)O)CC3)CC2)c2ccncc21` [Example 120, 1-(cis-4-(1-(4-fluoro-2-(isopropyl(methyl)carbamoyl)phenyl)-1H-pyrrolo[2,3-c]pyridin-3-yl)cyclohexyl)piperidine-4-carboxylic acid], the negative-log IC50 (pIC50) in test [2] was 6.00 to 7.00. Regarding `Cc1c(CN2CCC(c3cn(-c4ccc(F)cc4C(=O)N(C)C)c4cncnc34)CC2)ccc2[nH]c(C#N)cc12` [Example 64, 2-(7-(1-((2-cyano-4-methyl-1H-indol-5-yl)methyl)piperidin-4-yl)-5H-pyrrolo[3,2-d]pyrimidin-5-yl)-5-fluoro-N,N-dimethylbenzamide], the pIC50 in test [2] is more than 7.00. In test [2], `Cc1cc(F)ccc1-n1cc(C2CCN(Cc3ccc4[nH]c(C#N)cc4c3C)CC2)c2ncncc21` [Example 70, 5-((4-(5-(4-fluoro-2-methylphenyl)-5H-pyrrolo[3,2-d]pyrimidin-7-yl)piperidin-1-yl)methyl)-4-methyl-1H-indole-2-carbonitrile] showed a pIC50 of 6.00 to 7.00.

Consider `CC(C)N(C)C(=O)c1cc(F)ccc1-n1cc(C2CCN(C[C@H]3C[C@@H](NS(C)(=O)=O)C3)CC2)c2ccncc21` (stereo in doubt) [Example 92, 5-fluoro-N-isopropyl-N-methyl-2-(3-(1-((cis-3-(methylsulfonamido)cyclobutyl)methyl)piperidin-4-yl)-1H-pyrrolo[2,3-c]pyridin-1-yl)benzamide], for which, in test [2], the pIC50 is more than 7.00. As for `CC(C)N(C)C(=O)c1cc(F)ccc1-n1cc(C2CCN(Cc3ccc(S(C)(=O)=O)cc3)CC2)c2ccncc21` [Example 13, 5-fluoro-N-isopropyl-N-methyl-2-(3-(1-(4-(methylsulfonyl)benzyl)piperidin-4-yl)-1H-pyrrolo[2,3-c]pyridin-1-yl)benzamide], the pIC50 in test [2] is 6.00 to 7.00. As for `CC(C)N(C)C(=O)c1cc(F)ccc1-n1cc([C@H]2CC[C@@H](N3CCC(F)(F)CC3)CC2)c2ccncc21` [Example 111, 2-(3-(cis-4-(4,4-difluoropiperidin-1-yl)cyclohexyl)-1H-pyrrolo[2,3-c]pyridin-1-yl)-5-fluoro-N-isopropyl-N-methylbenzamide], the pIC50 in test [2] was 6.00 to 7.00. On the same count and under the same terms, with `CC(C)N(C(=O)c1cc(F)ccc1-n1cc(C2CCC(N3CCC4(CC(NS(C)(=O)=O)C4)C3)CC2)c2ccncc21)C(C)C` (single isomer, unassigned) [Example 139A, 5-fluoro-N,N-diisopropyl-2-(3-(4-(2-(methylsulfonamido)-6-azaspiro[3.4]octan-6-yl)cyclohexyl)-1H-pyrrolo[2,3-c]pyridin-1-yl)benzamide] the figure was more than 7.00; with `CC(C)N(C)C(=O)c1cc(F)ccc1-n1cc(C2CCCN(C(=O)OC(C)(C)C)C2)c2ccncc21` (centres unmarked) [Int. 2, tert-butyl 3-(1-(4-fluoro-2-(isopropyl(methyl)carbamoyl)phenyl)-1H-pyrrolo[2,3-c]pyridin-3-yl)piperidine-1-carboxylate], not above 6.00; with `CC(C)N(C)C(=O)c1cc(F)ccc1-n1cc(C2CCC(Oc3ccccc3)CC2)c2ccncc21` (centres unmarked) [Example 59, 5-fluoro-N-isopropyl-N-methyl-2-(3-(4-phenoxycyclohexyl)-1H-pyrrolo[2,3-c]pyridin-1-yl)benzamide], 6.00 to 7.00. Regarding `CC(C)N(C)C(=O)c1cc(F)ccc1-n1cc(C2CCN(c3ccccn3)CC2)c2ccncc21` [Example 94, 5-fluoro-N-isopropyl-N-methyl-2-(3-(1-(pyridin-2-yl)piperidin-4-yl)-1H-pyrrolo[2,3-c]pyridin-1-yl)benzamide], in test [2], the pIC50 is more than 7.00. `Cc1c(CN2CCC(c3cn(-c4cccc(F)c4)c4cncnc34)CC2)ccc2[nH]c(C#N)cc12` [Example 71, 5-((4-(5-(3-fluorophenyl)-5H-pyrrolo[3,2-d]pyrimidin-7-yl)piperidin-1-yl)methyl)-4-methyl-1H-indole-2-carbonitrile] showed a pIC50 in test [2] not above 6.00. The molecule `CC(C)N(C)C(=O)c1cc(F)ccc1-n1cc(C2CCC(N3CCC(O)C3)CC2)c2ccncc21` (single isomer, unassigned) [Example 95A, 5-fluoro-2-(3-(4-(3-hydroxypyrrolidin-1-yl)cyclohexyl)-1H-pyrrolo[2,3-c]pyridin-1-yl)-N-isopropyl-N-methylbenzamide] had a pIC50 in test [2] of more than 7.00. `Fc1ccc(-n2cc(C3CCN(CCc4ccccc4)CC3)c3ccncc32)cc1` [Example 40, 1-(4-fluorophenyl)-3-(1-phenethylpiperidin-4-yl)-1H-pyrrolo[2,3-c]pyridine]: in test [2], the pIC50 is 6.00 to 7.00.

Consider `CC(C)N(C)C(=O)c1cc(F)ccc1-n1cc([C@H]2CC[C@H](N3CCC(C(=O)O)CC3)CC2)c2ccncc21` [Example 119, 1-(trans-4-(1-(4-fluoro-2-(isopropyl(methyl)carbamoyl)phenyl)-1H-pyrrolo[2,3-c]pyridin-3-yl)cyclohexyl)piperidine-4-carboxylic acid], for which the pIC50 in test [2] is 6.00 to 7.00. As for `CC(C)CCN1CCC(c2cn(-c3ccc(F)cc3)c3cnccc23)CC1` [Example 39, 1-(4-fluorophenyl)-3-(1-isopentylpiperidin-4-yl)-1H-pyrrolo[2,3-c]pyridine], the pIC50 in test [2] is 6.00 to 7.00.

The molecule `CC(C)N(C)C(=O)c1cc(F)ccc1-n1cc(C2CCC(O)CC2)c2ccncc21` (single isomer, unassigned) [Example 53, 5-fluoro-2-(3-(4-hydroxycyclohexyl)-1H-pyrrolo[2,3-c]pyridin-1-yl)-N-isopropyl-N-methylbenzamide] gave a pIC50 in test [2] not above 6.00. With `CC(C)N(C)C(=O)c1cc(F)ccc1-n1cc([C@H]2CC[C@@H](N3CC(CO)C3)CC2)c2ccncc21` [Example 99, 5-fluoro-2-(3-(cis-4-(3-(hydroxymethyl)azetidin-1-yl)cyclohexyl)-1H-pyrrolo[2,3-c]pyridin-1-yl)-N-isopropyl-N-methylbenzamide], in test [2], the pIC50 is 6.00 to 7.00. `CC(C)N(C)C(=O)c1cc(F)ccc1-n1cc(C2CCN(CCc3cccc(C#N)c3)CC2)c2ccncc21` [Example 25, 2-(3-(1-(3-cyanophenethyl)piperidin-4-yl)-1H-pyrrolo[2,3-c]pyridin-1-yl)-5-fluoro-N-isopropyl-N-methylbenzamide]: the pIC50 in test [2] is more than 7.00. The molecule `CC(C)N(C)C(=O)c1cc(F)ccc1-n1cc([C@H]2CC[C@@H](N3CCC[C@@H]3CO)CC2)c2ccncc21` [Example 101, 5-fluoro-2-(3-(cis-4-((R)-2-(hydroxymethyl)pyrrolidin-1-yl)cyclohexyl)-1H-pyrrolo [2,3-c]pyridin-1-yl)-N-isopropyl-N-methylbenzamide] had a pIC50 in test [2] of more than 7.00.
